Experiment [1] concerns T-DM1 resistant cells (N87-TDM). Briefly: Cytotoxicity on cells relapsed from T-DM1 treatment in vivo (CellTiter Glo, 96 hours). In kind it is cell-based. To be noted: for sensitivity of cells relapsed from T-DM1 treatment (in words): compared to parental N87; for pIC50: 96 h. As for the experimental part:
(§1) Cells were incubated for 96 hours in a humidified 37° C./5% CO2 incubator.
In general terms: In ATP-based viability assays light output follows the ATP content of the culture.

Experiment [2] concerns N87 xenografts. Put plainly: T-DM1 resistance generated in vivo in N87 xenografts and follow-on treatment. The arrangement: species or system mouse. To be noted: […] weekly, n=20.
Method: Tumors were measured twice per week or weekly and mass calculated as volume=(width×width×length)/2.
Experiment [3] relates to Her2-expressing cell lines BT474 and SKBR3. Briefly: ADCC assay (LDH release, NK-92 or human PBMC effector cells). In kind it is cell-based. The settings on record: 1 μg/ml antibody or ADC, 6 hours. A general note: LDH in the medium is a marker of cell lysis.
Method: In ADCC assays, Her2-expressing cell lines BT474 and SKBR3 were used as target cells while NK-92 cells (an interleukin-2 dependent natural killer cell line derived from peripheral blood mononuclear cells from a person by Conkwest) or human peripheral blood mononucleocytes (PBMC) isolated from the freshly drawn blood from a healthy donor (#179) were used as effector cells.
Target cells (BT474 or SKBR3) of 1×10^4 cells/100 μl/well were placed in 96-well plate and cultured overnight in RPMI1640 media at 37° C./5% CO2. […]
Assay plates were incubated at 37° C./5% CO2 for 6 hours and then equilibrated to room temperature. LDH release from cell lysis was measured using CytoTox-One™ reagent at an excitation wavelength of 560 nm and an emission wavelength of 590 nm. […]
“Experimental” corresponds to the signal measured in one of the condition described above.
“Effector spontaneous” corresponds to the signal measured in the presence of PBMC alone.
“Target spontaneous” corresponds to the signal measured in the presence of target cells alone.
“Target Maximum” corresponds to the signal measured in the presence of detergent-lysed target cells alone.
In experiment [4] the test system is 37622 patient-derived xenografts. To be noted: 10 mg/kg, IV Q4dx4.
Method: (§4) For each model described below the first dose was given on Day 1. The tumors were measured at least once a week and their volume was calculated with the formula: tumor volume (mm^3)=0.5× (tumor width^2)(tumor length). The mean tumor volumes (±S.E.M.) for each treatment group were calculated having a maximum of 8-10 animals and a minimum of 6-8 animals to be included.
Several ADCs were tested in patient-derived Non-Small Cell Lung Cancer xenograft model of 37622 obtained in accordance with appropriate consent procedures. The 37622 patient-derived xenografts were subcutaneously passaged in vivo as fragments from animal to animal in nude (Nu/Nu) female mice. When the tumors reached a volume of 150 to 300 mm^3, they were staged to ensure uniformity of the tumor size among various treatment groups.
Experiment [5] has as its system 144580 breast patient-derived xenografts. To be noted: all doses tested (1, 5, 3 and 6 mg/kg), IV Q4dx4.
Method: as §4
The 144580 breast patient-derived xenografts were subcutaneously passaged in vivo as fragments from animal to animal in nude (Nu/Nu) female mice. When the tumors reached a volume of 150 to 300 mm^3, they were staged to ensure uniformity of the tumor size among various treatment groups.
Experiment [6] concerns GA0044 patient-derived xenografts. Briefly: GA0044 patient-derived gastric cancer xenograft model. In kind it is in vivo, mouse. The settings on record: IV Q4dx4, dose not stated. On the technique in general: Xenograft models place foreign cells or tissue in a host animal.
Experiment [7] relates to N87 tumors. Briefly: In vivo efficacy on parental N87 tumors in NSG mice. The arrangement: species or system mouse. To be noted: 6 and 10 mg/kg, Q4Dx4, N87 model.
Method: Mice were injected subcutaneously in the right flank with suspensions of either N87 or N87-TM cells (7.5×10^6 cells per injection, with 50% Matrigel). Mice were randomized into study groups when tumors reached ˜0.3 g (˜250 mm^3). […] Tumors were measured weekly and mass calculated as volume=(width×width×length)/2. Time-to-event analysis (tumor doubling) was conducted and significance evaluated by Log-rank (Mantel-Cox) test.
Experiment [8] concerns N87 cell line xenograft tumors. Put plainly: Bystander effect, immunohistochemistry (human IgG, pHH3) of N87 xenograft tumors. In kind it is in vivo, mouse. The settings on record: single dose, T-DM1 6 mg/kg or T-vc0101 3 mg/kg, 96 hours.
From the text: Tumor sections were stained for human IgG to detect ADC bound to tumor cells and phospho-histone H3 (pHH3) to detect mitotic cells as a readout of the proposed mechanism of action for the payloads of both ADCs.
For experiment [9], the system named is N87 cells. The settings on record: read-out: IC80, payload concentration, approximate. The procedure: (§2) N87 cells were passaged into two separate flasks and each flask was treated identically with respect to the resistance-generation protocol to enable biological duplicates. […] The procedure was intended to simulate the chronic, multi-cycle (on/off) dosing at maximally tolerated doses typically used for cytotoxic therapeutics in the clinic, followed by a recovery period. […] Data were collected from various thawed cryopreserved populations derived from a single selection, over approximately 1-2 years after model development to ensure consistency in the results.
(§3) ADCs were prepared as indicated in Example 3. Unconjugated maytansine analog (DM1) and auristatin analogs were prepared by Pfizer Worldwide Medicinal Chemistry (Groton, Conn.). Other standard-of-care chemotherapeutics were purchased from Sigma (St. Louis, Mo.). Cells were seeded in 96-well plates at low density, then treated the following day with ADCs and unconjugated payloads at 3-fold serial dilutions at 10 concentrations in duplicate. Cells were incubated for 4 days in a humidified 37° C./5% CO2 incubator. The plates were harvested by incubating with CellTiter® 96 AQueous One MTS Solution (Promega, Madison, Wis.) for 1.5 hours and absorbance measured on a Victor plate reader (Perkin-Elmer, Waltham, Mass.) at wavelength 490 nm. IC50 values were calculated using a four-parameter logistic model with XLfit (IDBS, Bridgewater, N.J.).

The subject of experiment [10] is JIMT-1 breast xenografts. To be noted: even at 6 mg/kg, IV Q4dx4.
Method: as §4
To generate xenografts, nude (Nu/Nu) female mice were implanted subcutaneously with 5×10^6 JIMT-1 cells (DSMZ # ACC-589) in 50% Matrigel (BD Biosciences). When the tumors reached a volume of 200 to 250 mm^3, the tumors were staged to ensure uniformity of the tumor mass among various treatment groups.
The subject of experiment [11] is N87 gastric xenografts. Briefly: N87 gastric xenograft model. Type of experiment: in vivo, mouse. To be noted: IV Q4dx4.
Method: as §4
When the tumors reached a volume of 250 to 450 mm^3, the tumors were staged to ensure uniformity of the tumor mass among various treatment groups.
The test system of experiment [12] is N87-TM cells. Briefly: Cytotoxicity on T-DM1 resistant cells made in vitro, population not specified (MTS, 4 days). In kind it is cell-based. The settings on record: N87-TM versus N87-parental. As for the experimental part: as §2, §3
For experiment [13], the system named is parental N87 cells. Put plainly: Cytotoxicity on parental N87 cells (CellTiter Glo, 96 hours). In kind it is cell-based. The settings on record: free payload, N87 cell line, read-out: Sensitivity to free payload (IC50), N87. The procedure:
as §1

Where [14] appears, read: read-out: Sensitivity to free payload (IC50), N87-T-DM1_Ms2.
Setting [15] is: read-out: Sensitivity to free payload (IC50), N87-T-DM1_Ms7.
Where [16] appears, read: read-out: Sensitivity to free payload (IC50), N87-T-DM1_Ms17.

pIC50: −log10 of the molar value. Entries after “also recorded” stand apart in the source; their conditions may differ. Like-named read-outs stand apart in the source and are kept apart here. Square brackets hold non-standard residues; d marks the D form. Peptide text beside a SMILES is read from it. * marks the point of attachment. Dolaproine = CO[C@@H]([C@@H]1CCCN1)[C@@H](C)C(=O)O; Dil = CC[C@H](C)[C@H](NC)[C@@H](CC(=O)O)OC; Doe = c1ccc(C[C@H](N*)c2nccs2)cc1; Aib = CC(C)(N)C(=O)O Bounds are passed on as bounds.

Take T-DM1: the “sensitivity of cells relapsed from T-DM1 treatment (in words)” value (shortened to “sensitivity of cells relapsed”) in experiment [1] is “resistant”. The “mice that responded to initial T-DM1 treatment” value in [2] is 17 out of 20. The “ADCC activity (in words)” value in [3] is on record as “conform the reported ADCC activities”. For the same compound, the tumor response result in experiment [4] is “only provided some therapeutic benefit”; in experiment [5], “ineffective”; in [10] it was “inactive”; in [11] (10 mg/kg) it was “complete regression of tumors”; in experiment [11] (1 and 3 mg/kg) it was “delayed tumor growth”. In experiment [6], the “tumor growth compared to vehicle” value is recorded as “no appreciable difference in tumor growth as compared to vehicle treated tumors”. Besides, the “mice in which tumor doubling was prevented for at least 60 days” value in experiment [7] is listed as > 50%. Besides, the “location of the majority of pHH3 positive tumor cells” value in [8] is “located near the ADC”. In addition, the IC80 in experiment [9] is ~10 nM.
`COc1cc2cc(c1Cl)N(C)C(=O)C[C@H](OC(=O)[C@H](C)N(C)C(=O)CCS)[C@]1(C)O[C@H]1[C@H](C)[C@@H]1C[C@@](O)(NC(=O)O1)[C@H](OC)/C=C/C=C(\C)C2` [DM1]: the “sensitivity of N87-TM cells (in words)” value in experiment [12] is listed as “retained sensitivity”.
What is called pIC50 is −log10 of the IC50, conventionally taken in molar units. As for `CC[C@H](C)[C@@H]([C@@H](CC(=O)N1CCC[C@H]1[C@H](OC)[C@@H](C)C(=O)N[C@@H](Cc1ccccc1)c1nccs1)OC)N(C)C(=O)[C@@H](NC(=O)C(C)(C)N)C(C)C` [Aur-0101] (H-[Aib]V[Dil][Dolaproine]-Doe), the negative-log IC50 (pIC50) is 9.40 in experiment [1] (setting [14]), 9.22 in experiment [1] (setting [15]), 9.55 in experiment [1] (setting [16]) and 9.30 in experiment [13].
With `CC[C@H](C)[C@@H]([C@@H](CC(=O)N1CCC[C@H]1[C@H](OC)[C@@H](C)C(=O)N[C@@H](Cc1ccccc1)c1nccs1)OC)N(C)C(=O)[C@@H](NC(=O)C(C)(C)N)C(C)C` [compound 0101, 2-methylalanyl-N-[(3R,4S,5S)-3-methoxy-1-{(2S)-2-[(1R,2R)-1-methoxy-2-methyl-3-oxo-3-{[(1S)-2-phenyl-1-(1,3-thiazol-2-yl)ethyl]amino}propyl]pyrrolidin-1-yl}-5-methyl-1-oxoheptan-4-yl]-N-methyl-L-valinamide] (H-[Aib]V[Dil][Dolaproine]-Doe), the “sensitivity of cells relapsed” value in [1] was “surprisingly sensitive; also recorded: not resistant”. The “sensitivity of N87-TM cells (in words)” value in experiment [12] is given as “retained sensitivity”.
Take `CC(=O)O[C@H]1C(=O)[C@@]2(C)[C@H]([C@H](OC(=O)c3ccccc3)[C@]3(O)C[C@H](OC(=O)[C@H](O)[C@@H](NC(=O)c4ccccc4)c4ccccc4)C(C)=C1C3(C)C)[C@]1(OC(C)=O)CO[C@@H]1C[C@@H]2O` [paclitaxel]: the “sensitivity of N87-TM cells (in words)” value in [12] is on record as “lack of cross-resistance”.
For the compound `COc1cccc2c1C(=O)c1c(O)c3c(c(O)c1C2=O)C[C@@](O)(C(=O)CO)C[C@@H]3O[C@H]1C[C@H](N)[C@H](O)[C@H](C)O1` [doxorubicin], the pIC50 in [1] (setting [14]) was 7.34; in experiment [1] (setting [15]) it was 7.10; in experiment [1] (setting [16]) it was 7.47; in experiment [13], 7.32. For the same compound, in experiment [1], the “sensitivity of cells relapsed” value is “No resistance”. Besides, in experiment [12], the “sensitivity of N87-TM cells (in words)” value is on record as “lack of cross-resistance”.

The values are drawn from patent US10689458B2, “Site specific HER2 antibody drug conjugates” (Pfizer Inc., priority 2015, dated 2020).
